The numbers were not newly measured in US8709720B2, “Methods and kits for predicting the responsiveness of hepatocellular carcinoma patients to 5-fluorouracil-based combination chemotherapy” (priority 2012, dated 2014), which cites them from elsewhere.

For this data set, the system named is advanced HCC. Conditions: advanced HCC patients, prior research / clinical trials.

For `COc1cccc2c1C(=O)c1c(O)c3c(c(O)c1C2=O)C[C@@](O)(C(=O)CO)C[C@@H]3O[C@H]1C[C@H](N)[C@H](O)[C@H](C)O1` [doxorubicin], the response rate is listed as 32%.
